Reference: ChEMBL document CHEMBL3988442, “University of Dundee, Small-Polar-MMV Screening Library” (2021)
Several values for one entry are separate records, joined by “and”; a condition that tells them apart may be missing. Equal values may be shown once.

Columns and labels:
[1] = microbe, parasite or virus in culture; conditions: Mycobacterium tuberculosis, 72 h, read-out: pIC50 (converted)
Wolbachia pipientis = assay: Anti-Wolbachia Cell-Based Screen; format: functional; conditions: for IC50: Wolbachia pipientis
[2] = microbe, parasite or virus in culture; conditions: Mycobacterium tuberculosis, 96 h, read-out: pIC50 (converted)
Schistosoma mansoni = assay: High throughput screening of compounds against Schistosoma mansoni motility; format: functional; parameters: dose or concentration left out as unconfirmed
Histidine--tRNA ligase = target: T1, Histidine--tRNA ligase (Leishmania infantum, UniProt A4I591); assay: Leishmania infantum Histidine tRNA synthetase (LdHisRS); format: functional
T1 sequence (A4I591 whole entry): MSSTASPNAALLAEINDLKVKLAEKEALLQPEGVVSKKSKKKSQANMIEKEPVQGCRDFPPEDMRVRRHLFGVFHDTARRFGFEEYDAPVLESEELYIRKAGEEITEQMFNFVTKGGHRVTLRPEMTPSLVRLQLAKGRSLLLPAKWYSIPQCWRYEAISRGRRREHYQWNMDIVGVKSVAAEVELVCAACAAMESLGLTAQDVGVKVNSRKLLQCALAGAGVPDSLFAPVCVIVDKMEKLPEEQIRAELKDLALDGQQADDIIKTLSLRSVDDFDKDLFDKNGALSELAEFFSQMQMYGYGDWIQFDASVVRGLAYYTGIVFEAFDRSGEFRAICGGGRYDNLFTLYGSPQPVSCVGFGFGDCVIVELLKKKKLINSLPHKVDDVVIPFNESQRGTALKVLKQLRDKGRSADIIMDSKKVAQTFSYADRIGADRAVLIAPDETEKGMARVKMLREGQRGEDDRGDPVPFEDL

Lysine--tRNA ligase = Lysine--tRNA ligase (Plasmodium falciparum (isolate 3D7), UniProt Q8IDJ8); assay: Pf-KRS-1 (Lysyl-RNA Synthetase-1, KRS-1, cytosolic KRS) from Plasmodium falciparum. Inhibitor assay, 384 well plate, luminescence read.; format: functional
Sequence of Lysine--tRNA ligase (Q8IDJ8 whole entry): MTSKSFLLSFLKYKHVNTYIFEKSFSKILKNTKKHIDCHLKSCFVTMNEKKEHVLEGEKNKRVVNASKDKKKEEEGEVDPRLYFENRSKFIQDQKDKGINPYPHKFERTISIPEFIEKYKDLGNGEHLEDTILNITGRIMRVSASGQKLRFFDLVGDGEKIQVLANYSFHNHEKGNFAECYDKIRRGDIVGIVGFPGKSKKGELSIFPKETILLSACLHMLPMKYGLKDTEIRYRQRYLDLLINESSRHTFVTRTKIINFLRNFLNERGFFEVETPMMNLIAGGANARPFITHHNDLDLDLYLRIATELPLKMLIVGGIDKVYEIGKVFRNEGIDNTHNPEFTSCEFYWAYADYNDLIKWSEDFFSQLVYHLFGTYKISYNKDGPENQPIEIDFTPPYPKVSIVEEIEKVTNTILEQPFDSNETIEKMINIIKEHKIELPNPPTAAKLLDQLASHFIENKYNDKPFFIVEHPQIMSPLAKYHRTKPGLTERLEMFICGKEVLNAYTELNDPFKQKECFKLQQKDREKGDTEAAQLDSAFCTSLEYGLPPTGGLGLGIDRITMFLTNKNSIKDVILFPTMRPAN

Compound	pIC50 (Wolbachia pipientis)	IC50 (Wolbachia pipientis) [µM]	also measured
CO[C@H]1CCN(c2nnc(C)s2)C[C@@H]1Cc1cccc(C)c1.O=C(O)C(F)(F)F	5.267	3.74	IC50 [1]: 41.7 µM; IC50 [2]: 16.7 µM
CN(Cc1ccc(F)cc1)CC1(O)CCCN(CC(C)(C)C)C1=O (stereo not given)	–	> 10	Percent Effect (Schistosoma mansoni): 7.085%
CO[C@@H]1CCN(c2nnc(C)s2)C[C@@H]1Cc1ccccc1.O=C(O)C(F)(F)F	6.169	0.958	IC50 [1]: 11.3 µM; IC50 [2]: 7.95 µM
CO[C@@H]1CCN(c2nnc(C)s2)C[C@@H]1Cc1cccc(C)c1.O=C(O)C(F)(F)F	5.813	1.57	IC50 [1]: 41.6 µM; IC50 [2]: 16.3 µM
COc1ccc(C[C@H]2CN(c3nnc(C)s3)CC[C@H]2OC)cc1.O=C(O)C(F)(F)F	6.226	0.462	IC50 [1]: 16.3 µM; IC50 [2]: 16.4 µM
CNc1ncc(CN(C)c2ncnc3onc(C)c23)cn1	–	> 10	–
N#Cc1cc(F)c(NCc2ccc(F)cc2)c(F)c1	–	> 10	–
Cc1ccc(-c2nc(CN3CCn4c(C)nnc4C3)cs2)o1	–	> 10	–
NC(=O)C1CCN(c2nc3nccc(-c4ccccn4)c3c(=O)[nH]2)CC1	–	> 10	–
Cc1c[nH]c(CN2CCOC(c3ccc(Cl)cc3)C2)c(C)c1=O (stereo not given)	5.539	2.63	–
c1cnn(CC2CCCN2c2ncnc3ccsc23)c1 (stereo not given)	5.454	3.17	–
Cc1ncc(CN(C)Cn2nc(-c3ccccc3)oc2=O)s1	5.124	5	–
CO[C@H]1CCN(c2nnc(C)s2)C[C@@H]1Cc1ccccc1.O=C(O)C(F)(F)F	5.449	3.77	IC50 [1]: 40.3 µM; IC50 [2]: 15.7 µM
Fc1ccc(CN2CCCC(c3cc4ncccc4[nH]3)C2)cc1 (stereo not given)	5.047	6.78	IC50 [1]: 33.7 µM; IC50 [2]: 24.3 µM
CC(C)Cn1ncc2cc(C(=O)N(C)CCc3ccccc3)cnc21	–	> 10	–
O=C(CCc1ccc(Cl)s1)N1CCC(N2CCNC2=O)CC1	–	> 10	–
CCCS(=O)(=O)NCc1ncc(C)c(OC)c1C	5.88	1.37	–
O=C(CC1CC1)NCc1cc(=O)n2c(n1)CN(Cc1ccoc1)CCC2	–	> 10	–
COc1ccc(CC(=O)N(C)c2cccnc2N(C)C)c(Cl)c1	5.287	4.83	IC50 (Histidine--tRNA ligase): 19.4 µM and 16.5 µM; IC50 (Lysine--tRNA ligase): > 50.1 µM
CCC(CC)C(=O)N1CCCc2c(cnn2C)C1	5.338	5.15	–
CC(C)N1CC(NC(=O)c2ccc(Cl)s2)CC1=O (stereo not given)	–	> 10	–
CCc1ccc(CN(C)Cc2nc(COc3ccccc3)no2)nc1	5.105	9.16	–
N#Cc1ccc(N2CCCC3(CCN(c4cccnc4)CC3)C2)cc1.O=C(O)C(F)(F)F	6.279 and 5.873	–	IC50 (Histidine--tRNA ligase): 24.6 µM and 24.2 µM

Compound	pIC50 (Wolbachia pipientis)	IC50 (Wolbachia pipientis) [µM]	also measured
Cc1csc(CN(C)c2cc(C)nc3c(C)c(C)nn23)n1	5.234	6.27	IC50 [1]: 37.9 µM; IC50 [2]: 25.5 µM
c1ccc(-c2nnc(N3CCCC4(CCOC4)C3)s2)cc1 (stereo not given)	5.105	> 10	–
CN(C)c1cc(CNCc2ccc(N3CCOCC3)cc2)ccn1	–	> 10	–
CC(C)Cc1cc(C(=O)NCC2CCCN(Cc3ccco3)C2)on1 (stereo not given)	5.687	1.41	–
Cc1ccc(F)c2c1N(C(=O)Cc1c(C)nn(C)c1C)CCC2	5.021	8.03	–
CCc1nc(C)sc1CN1CCc2[nH]nc(-c3ccc(F)c(F)c3)c2C1	5.065	4.91	–
Cc1nnc(N2CCCC3(CN(Cc4nccs4)CCO3)C2)o1 (stereo not given)	–	> 10	–
Cc1cc(CN2CCCC2)cc(Oc2nc(C)cnc2C)c1	–	> 10	–
CSCC[C@H](N)C(=O)NCc1cc2n(n1)CCCN(C(=O)C1CCC1)C2	–	> 10	Percent Effect (Schistosoma mansoni): -28.36%
NS(=O)(=O)c1cnn(CCC(=O)N(Cc2ccccc2)C2CC2)c1	–	> 10	–
O=C(O)C(F)(F)F.O=C(O)C(F)(F)F.c1cncc(-c2ccc3c(c2)CCC32CCN(Cc3ccco3)CC2)c1	6.473	0.404	IC50 [1]: 20.5 µM; IC50 [2]: 28.7 µM
Cn1cc(CN2C[C@@H]3CCC[C@@H](OCc4cccnc4)[C@@H]3C2)cn1	–	> 10	–
CCC(CC)C(O)CNC(=O)Nc1cc(C)nn1C (stereo not given)	–	> 10	–
Cn1nccc1C(=O)N1CCCC2(CCN(c3ccsc3)C2=O)C1 (stereo not given)	–	> 10	–
Cc1cc(NC(=O)c2ccccc2Br)n(C)n1	–	> 10	–
Cc1ccc(CN2CCn3c(CNC(=O)c4cccn4C)cnc3C2)s1	–	> 10	IC50 (Histidine--tRNA ligase): 64.8 µM and 62.5 µM
CC(C)N(C(=O)c1csc(-c2ccoc2)n1)C1CCOCC1	–	> 10	–
CCc1ccc(CN(C(=O)CCn2cc(S(N)(=O)=O)cn2)C2CC2)cc1	–	> 10	–
CCc1c(C)nc2cc(-c3nccn3C)nn2c1N1CCCC(CO)C1 (stereo not given)	5.187	5.95	–
COCC(=O)Nc1ccc(-c2noc([C@@H]3CCCN3C(C)C)n2)cn1	5.079	8.83	–
Cc1nn(C)c2nc(N(Cc3nccs3)C3CC3)sc12	5.592	2.9	–
Cc1cc(NC(=O)CN2CCn3c(nnc3C3CC3)C2)on1	–	> 10	–
CCOc1ccc2nc(NC(=O)c3c(C(=O)O)cnn3C)sc2c1	5.956	1.47	–

Compound	pIC50 (Wolbachia pipientis)	IC50 (Wolbachia pipientis) [µM]	also measured
c1ccc(O[C@H]2COCCN(Cc3c[nH]c4ccccc34)C2)cc1	5.37	6.98	–
CCOCCCC(=O)NCc1ccc(N2CCCCC2)cc1	–	> 10	–
CNc1cc(C)nc(N2Cc3cnn(Cc4ccc(F)cc4)c3C2)n1	6.156	0.556	IC50 [1]: 33.6 µM; IC50 [2]: 24.2 µM
Cc1csc(Nc2nccnc2C2CCCN2S(C)(=O)=O)n1 (stereo not given)	–	> 10	–
COc1ccc(Br)c(C(=O)NCC2CC2)c1	–	> 10	–
CC(C)[C@@H]1CN(C2CCN(Cc3ccccc3)CC2)C[C@H]1NS(C)(=O)=O	5.381	3.75	–
O=C(O)C(F)(F)F.c1cc(-c2ccc3c(c2)CCC32CCN(c3nncs3)CC2)ccn1	5.133	5.68	IC50 (Histidine--tRNA ligase): 19.6 µM and 24.9 µM
COc1ccc(C(C)N(C)Cc2c(C(C)C)[nH]c3ncccc23)cc1 (stereo not given)	–	> 10	–
c1cc(CN2CCc3cncnc3C2)c2c(c1)OCCO2	5.26	> 10	–
CC(=O)N(Cc1noc(C2CC2)n1)C1CCN(Cc2cccnc2)C1 (stereo not given)	–	> 10	–
CCC(Nc1nc(C)nc2onc(C)c12)c1nc(C)c(C)s1 (stereo not given)	5.592	2.54	–
CCc1cc(N(C)Cc2nonc2C)nc(N(C)C)n1	5.613	1.92	–
CCCNC(=O)c1ncn2c1CN(CC(C)C)S(=O)(=O)c1ccccc1-2	–	> 10	–
Cc1cc(NCCCNc2cccnc2)n2nc(C)c(C)c2n1	5.158	> 10	–
CC1(C(=O)N2CCN(c3ncccn3)CC2)CNCCO1 (stereo not given)	–	> 10	–
c1cnnc(N2CCCC2CNCc2csc(-c3ccco3)n2)c1 (stereo not given)	–	> 10	–
COc1ncccc1C(=O)N1CCc2c(ncnc2N2CCOCC2)C1	–	> 10	–
Cc1cc(NC(=O)NCC(O)c2ccc(F)c(F)c2)n(C)n1 (stereo not given)	–	> 10	–
CCOC(=O)c1sc2ccsc2c1CNC(=O)C(C)(C)C#N	5.24	6.09	–
CCNc1cc2c(nn1)CCN(C(=O)c1ccnc(C)n1)C2	–	> 10	IC50 (Histidine--tRNA ligase): 58.6 µM and 51.7 µM
CC(=O)N1CCN(C(=O)CCn2c(C)nc3ccccc3c2=O)CC1	–	> 10	–
